Laboratory results taken from US20050171211A1, “Gingerol analogues and use thereof” (priority 2002, published 2005).
Like-named read-outs stand apart in the source and are kept apart here.

Legend:
[1] = Test about suppression of lipid peroxide generation in linoleic acid
Experimental: Using the compound of the formula (11) as obtained in Example 1 and the compound of the formula (12) as obtained in Example 2, a test about the suppression of lipid peroxide generation in linoleic acid was done. Along with the compounds, dl-α-tocopherol (manufactured by Tokyo Kasei Kogyo Co., Ltd.) was tested similarly, to obtain control data.
The test procedures are as follows. As a test result, the ratio of residual linoleic acid by the following procedure (3) is described in Table 1.
(1) After ethanol (2.0 g ) was added to linoleic acid (0.2 g; manufactured by Tokyo Kasei Kogyo Co., Ltd.), a test compound (0.01 g) and a surface active agent Nissan OT-221 (0.4 g; manufactured by NOF Corporation) placed in a 50-ml screw vial, for dissolution, distilled water (17.39 g) was added to the resulting solution for agitation, and was then sealed and left to stand alone in a thermostat at 40° C. Such sample was prepared in a duplex manner.
A blank test with no test compound added was similarly done.
(2) The amount of remaining linoleic acid one week, 2 weeks, 3 weeks and 4 weeks after the start of the test was assayed by HPLC.
The HPLC analytical conditions were as follows. Wavelength for detection: 210 nm. Mobile phase: a mixture solution of a disodium hydrogen phosphate-phosphate buffer adjusted to pH 2.5 and methanol (10:90). Flow: 1 ml/min. Column: ODS-8OTs (4.6 Φmm×150 mm). Column temperature at 40° C.
(3) Each sample was assayed by HPLC two times. The ratio of remaining linoleic acid was calculated on the basis of the mean of four assay values.

[2] = Test about scavenging DPPH radical; settings: final concentration 10 μg/mL; for Ratio of scavenging DPPH radical: 20 minutes, darkness, ambient temperature, absorbance at 517 nm
Experimental: Concerning radical-scavenging activity, a stable radical DPPH (1,1-diphenyl-2-picrylhydrazyl) was used for assaying the radical-scavenging activities of test compounds [the compound of the formula (11) and the compound of the formula (12) and a control sample dl-α-tocopherol (manufactured by Tokyo Kasei Kogyo Co., Ltd.)]. The assay method is as follows. Tris below is an acronym of tris(hydroxymethyl)aminomethane and M represents the concentration unit Mol/L.
1 ml of 200 μM DPPH solution in ethanol was added to 800 μl of 100 mM Tris-HCl buffer, pH 7.4 and 200 μl of a test compound solution in ethanol (to a final concentration of 10 μg/mL), for sufficient agitation. After the resulting mixture was left to stand alone in darkness at ambient temperature for 20 minutes, the absorbance at 517 nm was measured (absorbance of the test solutions).
Meanwhile, 800 μl of 100 mM Tris-HCl buffer, pH 7.4, 200 μl of ethanol and 1 ml of 200 μM DPPH solution in ethanol were used for the same procedures as described above to measure the absorbance to obtain the absorbance of the blank.
The individual test compounds and the blank were repeatedly treated by the same procedures three times, and the mean of the resulting absorbance values was inserted in the following formula, to calculate the ratio of scavenging DPPH radical. Ratio of scavenging DPPH radical (%)={1-(absorbance of sample solution/absorbance of blank solution)}×100

mushroom tyrosinase = assay: Test about the inhibition of tyrosinase activity using L-dopa as substrate; assay type: biochemical; settings: 0.27 or 0.54 μmol in 3 ml enzyme reaction solution, 25° C.
Experimental: Using the compound of the formula (11) obtained in Example 1, a test about the inhibition of tyrosinase activity using L-dopa as substrate was done. The same test was done about arbutin (manufactured by Tokyo Kasei Kogyo Co., Ltd.), to get control data. The test procedures are as follows. […]
(2) 0.10 ml of an enzyme solution prepared by dissolving 3.0 mg (2400 units; manufactured by Sigma Corporation) of mushroom tyrosinase in 7.0 ml of distilled water was added to the solution prepared in (1), for agitation for 15 seconds. The resulting solution was retained at 25° C., to measure the absorbance at 475 nm one minute-45 seconds later and 2 minute- 45 seconds later.
(3) The test procedures above in (1) and (2) were conducted three times for the individual test compounds and blank test (only dimethylsulfoxide), and the resulting mean was inserted in the following calculation formula to determine the ratio (%) of the inhibition of tyrosinase activity. Ratio of inhibition of tyrosinase activity (%)=[(T^1-T^2)/T^1]×100 T^1=difference in absorbance of blank solution between 2 minute-45 seconds later and one minute-45 seconds later T^2=difference in absorbance of solution with addition of test compound between 2 minute-45 seconds later and one minute-45 seconds later

Structure (SMILES)	ratio of remaining linoleic acid ([1]; 2 weeks later, 40° C., 0.01 g test compound, 0.2 g linoleic acid, HPLC)	ratio of remaining linoleic acid ([1]; 3 weeks later, 40° C., 0.01 g test compound, 0.2 g linoleic acid, HPLC)	ratio of remaining linoleic acid ([1]; 4 weeks later, 40° C., 0.01 g test compound, 0.2 g linoleic acid, HPLC)	ratio of remaining linoleic acid ([1]; one week later, 40° C., 0.01 g test compound, 0.2 g linoleic acid, HPLC)	Ratio of scavenging DPPH radical [2]	ratio of remaining linoleic acid [1]	ability of scavenging radical compared with dl-α-tocopherol [2]	inhibition of tyrosinase activity compared with arbutin (FIG. 1) (mushroom tyrosinase)
Cc1c(C)c2c(c(C)c1O)CCC(C)(CCCC(C)CCCC(C)CCCC(C)C)O2 (racemic) [Tocopherol, dl-α-tocopherol]	73.2%	62.6%	57.3%	83.6%	26.7%	–	–	–
CCCCCC(CC(=O)CCc1ccc(O)c(OC)c1)OC (stereo not drawn) [Compound of formula (11)]	–	–	–	–	35.1%	90.5%	higher levels than that of dl-α-tocopherol	superior to that of arbutin
CCCCCC(CC(O)CCc1ccc(O)c(OC)c1)OC (stereo not drawn) [Compound of formula (12)]	–	–	–	–	40.0%	89.2%	higher levels than that of dl-α-tocopherol	–
